Data published in ChEMBL document CHEMBL2439966, “Development of novel ferulic acid derivatives as potent histone deacetylase inhibitors” (Bioorg Med Chem, 2013).

What was measured:
[1] = test system: MCF7; assay: cells; type: functional, cell-based; conditions: Homo sapiens, MCF7, 48 h
Description: Growth inhibition of human MCF7 cells after 48 hrs by MTT assay

[2] = molecular target: Histone deacetylase; assay: Inhibition of HDAC in human HeLa cell nuclear extracts using Color de LysTM after 30 mins; type: protein assay
[3] = test system: HeLa; assay: cells; type: functional, cell-based; conditions: Homo sapiens, 48 h
Description: Growth inhibition of human HeLa cells after 48 hrs by MTT assay

[4] = test system: MDA-MB-231; assay: cells; type: functional, cell-based; conditions: Homo sapiens, MDA-MB-231, 48 h
Description: Growth inhibition of human MDA-MB-231 cells after 48 hrs by MTT assay

| Compound | IC50 [1] | IC50 [2] | IC50 [3] | IC50 [4] |
| --- | --- | --- | --- | --- |
| COc1cc(/C=C/C(=O)Nc2ccc(C)cc2N)ccc1OCC(=O)Nc1cc(Br)cc(C(F)(F)F)c1 | 92.1 µM | 7.43 µM | 84.3 µM | > 100 µM |
| COc1cc(/C=C/C(=O)NO)ccc1OCC(=O)Nc1cc(C(F)(F)F)cc(C(F)(F)F)c1 |  | 10.5 µM |  |  |
| COc1cc(/C=C/C(=O)NO)ccc1OCC(=O)Nc1cc(Br)cc(C(F)(F)F)c1 |  | 67.8 µM |  |  |
| COc1cc(/C=C/C(=O)Nc2ccccc2N)ccc1OCC(=O)Nc1ccc(F)c(Cl)c1 |  | 11.5 µM |  |  |
| COc1cc(/C=C/C(=O)Nc2ccccc2N)ccc1OCC(=O)Nc1cccc(C(F)(F)F)c1 |  | 49.6 µM |  |  |
| COc1ccc(NC(=O)COc2ccc(/C=C/C(=O)Nc3ccccc3N)cc2OC)cc1 | > 100 µM | 8.95 µM | > 100 µM | 48.5 µM |
| COc1cc(/C=C/C(=O)Nc2ccccc2N)ccc1OCC(=O)Nc1ccc(Br)cc1 |  | 12.8 µM |  |  |
| COc1cc(/C=C/C(=O)Nc2ccccc2N)ccc1OCC(=O)Nc1ccccc1F |  | 73.7 µM |  |  |
| COc1cc(/C=C/C(=O)Nc2ccccc2N)ccc1OCC(=O)Nc1cccc(F)c1 | > 100 µM | 2.82 µM | 28.1 µM | > 100 µM |
| COc1cc(/C=C/C(=O)Nc2ccccc2N)ccc1OCC(=O)Nc1cc(C(F)(F)F)cc(C(F)(F)F)c1 | 43.1 µM | 7.8 µM | 20.8 µM | 25.3 µM |
| COc1cc(/C=C/C(=O)Nc2ccccc2N)ccc1OCC(=O)Nc1cc(Br)cc(C(F)(F)F)c1 |  | 24.2 µM |  |  |
| COc1cc(/C=C/C(=O)Nc2ccc(C)cc2N)ccc1OCC(=O)Nc1ccc(F)c(Cl)c1 |  | 15.4 µM |  |  |
| COc1cc(/C=C/C(=O)Nc2ccc(C)cc2N)ccc1OCC(=O)Nc1cccc(C(F)(F)F)c1 |  | 15.1 µM |  |  |
| COc1ccc(NC(=O)COc2ccc(/C=C/C(=O)Nc3ccc(C)cc3N)cc2OC)cc1 |  | 118 µM |  |  |
| COc1cc(/C=C/C(=O)Nc2ccc(C)cc2N)ccc1OCC(=O)Nc1ccc(Br)cc1 |  | 16.4 µM |  |  |
| COc1cc(/C=C/C(=O)Nc2ccc(C)cc2N)ccc1OCC(=O)Nc1ccccc1F |  | 11.6 µM |  |  |
| COc1cc(/C=C/C(=O)Nc2ccc(C)cc2N)ccc1OCC(=O)Nc1cccc(F)c1 |  | 66.6 µM |  |  |
| COc1cc(/C=C/C(=O)Nc2ccc(C)cc2N)ccc1OCC(=O)Nc1cc(C(F)(F)F)cc(C(F)(F)F)c1 |  | 71.4 µM |  |  |

Further lines, results first:

| IC50 [1] | IC50 [2] | IC50 [3] | IC50 [4] | Compound |
| --- | --- | --- | --- | --- |
|  | 49.3 µM |  |  | COc1cc(/C=C/C(=O)NO)ccc1OCC(=O)Nc1ccc(F)c(Cl)c1 |
|  | 12.5 µM |  |  | COc1cc(/C=C/C(=O)NO)ccc1OCC(=O)Nc1cccc(C(F)(F)F)c1 |
|  | 43 µM |  |  | COc1cc(/C=C/C(=O)NO)ccc1OCC(=O)Nc1ccc(Cl)c(Cl)c1 |
|  | 10.8 µM |  |  | COc1ccc(NC(=O)COc2ccc(/C=C/C(=O)NO)cc2OC)cc1 |
| 73.6 µM | 8.43 µM | > 100 µM | 0.76 µM | COc1cc(/C=C/C(=O)NO)ccc1OCC(=O)Nc1ccc(Br)cc1 |
| > 100 µM | 3.94 µM | 11.1 µM | 8.3 µM | COc1cc(/C=C/C(=O)NO)ccc1OCC(=O)Nc1ccccc1F |
| 39.5 µM | 9.47 µM | 34.5 µM | 1.45 µM | COc1cc(/C=C/C(=O)NO)ccc1OCC(=O)Nc1cccc(F)c1 |
| > 100 µM | 10.3 µM | 72.1 µM | 83.4 µM | COc1cc(/C=C/C(=O)Nc2ccccc2N)ccc1OCC(=O)Nc1ccc(Cl)c(Cl)c1 |
|  | 64.5 µM |  |  | COc1cc(/C=C/C(=O)Nc2ccc(C)cc2N)ccc1OCC(=O)Nc1ccc(Cl)c(Cl)c1 |
